Experimental findings from patent publication US20220315578A1, “BRD9 BIFUNCTIONAL DEGRADERS AND THEIR METHODS OF USE” (NOVARTIS AG, priority 2019, published 2022) are described below.

In this assay the target is T1, BRD9-GFP (Homo sapiens, UniProt Q9H8M2).
T1 construct: CHYSEL (2A cis-acting hydrolase element) remnant after GFP; mCherry is split off as a separate protein (C); expressed in transfected cells; host or cells: HEK293A cells (Invitrogen R70507), lentiviral transduction with pLenti6-BRD9-GFP-CHYSEL-mCherry, blasticidin selection
T1 sequence (Q9H8M2 1-597): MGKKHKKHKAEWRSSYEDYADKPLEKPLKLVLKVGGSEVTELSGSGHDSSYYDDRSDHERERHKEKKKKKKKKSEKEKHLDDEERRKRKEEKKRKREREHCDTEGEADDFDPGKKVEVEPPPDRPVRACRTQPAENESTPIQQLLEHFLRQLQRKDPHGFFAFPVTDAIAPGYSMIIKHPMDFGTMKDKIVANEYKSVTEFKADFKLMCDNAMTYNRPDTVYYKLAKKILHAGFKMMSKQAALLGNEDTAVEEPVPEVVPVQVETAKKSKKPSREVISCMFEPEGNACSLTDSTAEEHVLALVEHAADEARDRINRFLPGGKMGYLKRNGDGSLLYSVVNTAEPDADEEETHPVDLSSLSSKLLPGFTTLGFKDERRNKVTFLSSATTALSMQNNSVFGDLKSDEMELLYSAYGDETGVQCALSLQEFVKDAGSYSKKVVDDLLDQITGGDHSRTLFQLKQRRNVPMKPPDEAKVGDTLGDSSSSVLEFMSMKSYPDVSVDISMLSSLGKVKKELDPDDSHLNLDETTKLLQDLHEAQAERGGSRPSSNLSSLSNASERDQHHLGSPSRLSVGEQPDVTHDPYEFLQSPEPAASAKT
In words: BRD9-GFP protein abundance flow cytometry assay in HEK293A cells. It is filed as cell-based. The following applies: HEK293A-BRD9-GFP-CHYSEL-mCherry cells; for BRD9 Deg Amax %: 24 h, % protein remaining at the concentration at which maximum degradation is seen; for DC50: 24 h at 37° C., 10-point 1:3 dilution, concentration at which 50% maximal degradation was observed. The method, then:
Compounds of the invention were tested in the following cellular assays. The terms in Table 1 are defined as follows: DC50 refers to the concentration at which 50% maximal degradation was observed; deg Amax is the extent of degradation and the value refers to the % protein remaining at the concentration at which maximum degradation is seen.
BRD9-GFP protein abundance flow cytometry assay in HEK293A cells: Degradation of BRD9 was measured in HEK293A cells expressing BRD9-GFP and mCherry from a stably integrated second generation bicistronic BRD9-GFP-CHYSELmCherry construct. Reduction of the GFP signal measured by flow cytometry served as readout for BRD9 degradation after degrader treatment.
The bicistronic BRD9-GFP-CHYSEL-mCherry construct is based on a pLenti6-DEST vector backbone where a GFP-CHYSEL-mCherry cassette was synthesized and inserted downstream of the DEST cassette by Gibson assembly resulting in the new gateway compatible vector pLenti6-DEST-GFP-CHYSEL-mCherry to allow Gateway cloning with pENTR221-BRD9 (w/o ATG) to obtain the final sensor construct pLenti6-BRD9-GFP-CHYSEL-mCherry.
HEK293 Å-BRD9-GFP-CHYSEL-mCherry sensor cells were generated by lentiviral vector transduction using the pLenti6-BRD9-GFP-CHYSEL-mCherry sensor construct described before. […] The mix was incubated for another 20 min at RT and then added to 1 ml of a freshly prepared suspension of HEK293FT cells in a well of a 6-well plate (concentration 1.2×10^6 cells/ml). 1 day after transfection, the medium was replaced with 1.5 ml of complete growth medium (DMEM high Glucose+10% FCS+1% L-Glutamine+1% NEAA+1% NaPyr.). 48 h post transfection supernatant containing viral transducing particles was collected and frozen at −80° C. […] Infection was performed with […] of collected supernatant containing viral transducing particles in 1 ml medium including 8 μg/ml polybrene. 24 h post infection, stably transfected cells were selected with blasticidin at a concentration of 8 μg/ml.
Stable HEK293 Å-BRD9-GFP-CHYSEL-mCherry cells were maintained in complete growth medium (DMEM high Glucose+10% FCS+1% L-Glutamine+1% NEAA+1% NaPyr.) with passaging performed twice per week. On Day 0, HEK293 Å-BRD9-GFP-CHYSEL-mCherry cells were seeded at 10,000 cells/well in a 96-well microtiter plate in […] complete medium. On Day 1, cells were treated in duplicate with 10-point 1:3 dilution series of compound using the HP D300 Digital Dispenser (Tecan). DMSO concentrations were normalized across the plate to 0.1%. On Day 2, after 24 h of incubation at 37° C., treatment media was discarded, cells rinsed with 100 ul/well PBS and then detached using 40 ul trypsin/well for 5 min. Trypsin was neutralized with 100 ul/well PBS+20% FCS). Flow cytometry was performed on the samples using the Beckman Coulter CytoFLEX flow cytometer. Cell identification was then performed using forward (FSC) vs. side scatter (SSC) plots. Single cell discrimination is performed using FSC-Width (FSC-W) vs. FSC-Height (FSC-H) plots. Median GFP/mCherry ratio values for 5,000 single cells are used to determine BRD9 levels. Median GFP/mCherry ratio values from HEK293 Å-mCherry are used as a background signal and thus defining 0% BRD9 signal. Median GFP/mCherry ratio values from DMSO treated HEK293 Å-BRD9-GFP-CHYSEL-mCherry are used to define 100% BRD9 signal for subsequent DC50 curves (concentration at 50% BRD9 degradation). Concentration response curves plotting relative reduction of the GFP/mCherry ratio signal (measured by flow cytometry) versus 10 compound concentrations (starting concentration […], 3 fold dilution steps) of the compounds allowed generation of DC50 values. Data is shown in Tables 2 and 3, in which, DC50 refers to the concentration at which 50% maximal degradation was observed; deg Amax is the extent of degradation and the value refers to the % protein remaining at the concentration at which maximum degradation is seen.

The DC50 is the concentration at which degradation of the target reaches its halfway point. A low value points to degradation at low concentration.

Regarding `COc1cc(-c2cn(C)c(=O)c(C)c2C)ccc1CN1CCN(CC2CCN(C(=O)c3ccc(Cl)c(N4CCC(=O)NC4=O)c3)CC2)CC1` [Compound A14, 1-(2-Chloro-5-(4-((4-(2-methoxy-4-(1,4,5-trimethyl-6-oxo-1,6-dihydropyridin-3-yl)benzyl)piperazin-1-yl)methyl)piperidine-1-carbonyl)phenyl)dihydropyrimidine-2,4(1H,3H)-dione], the “BRD9 Deg Amax %” value is 33.06% and the DC50 was 3 nM.

With `COc1cc(-c2cn(C)c(=O)c(C)c2C)ccc1CN1CCN(CC2CCN(C(=O)c3cccc(N4CCC(=O)NC4=O)c3)CC2)CC1` [Compound A15, 1-(3-(4-((4-(2-Methoxy-4-(1,4,5-trimethyl-6-oxo-1,6-dihydropyridin-3-yl)benzyl)piperazin-1-yl)methyl)piperidine-1-carbonyl)phenyl)dihydropyrimidine-2,4(1H,3H)-dione], the “BRD9 Deg Amax %” value was determined as 29.47% and the 50% degradation concentration (DC50) came to 49 nM.

In the case of `COc1cc(-c2cc(C)c(=O)n(C)c2)c(OC)cc1CN1CCC(OC2CCN(C(=O)c3cccc(N4CCC(=O)NC4=O)c3)CC2)CC1` [Compound A16, 1-(3-(4-((1-(4-(1,5-Dimethyl-6-oxo-1,6-dihydropyridin-3-yl)-2,5-dimethoxybenzyl)piperidin-4-yl)oxy)piperidine-1-carbonyl)phenyl)dihydropyrimidine-2,4(1H,3H)-dione], the “BRD9 Deg Amax %” value was determined as 6.37% and the DC50 came to 32 nM.

Take `COc1ccc(C(=O)N2CCC(CN3CCC(Oc4ccc(-c5cn(C)c(=O)c6cnccc56)cc4Cl)CC3)CC2)cc1N1CCC(=O)NC1=O` [Compound A17, 1-(5-(4-((4-(2-Chloro-4-(2-methyl-1-oxo-1,2-dihydro-2,7-naphthyridin-4-yl)phenoxy)piperidin-1-yl)methyl)piperidine-1-carbonyl)-2-methoxyphenyl)dihydropyrimidine-2,4(1H,3H)-dione]: the “BRD9 Deg Amax %” value amounted to 32.92% and half-maximal degradation (DC50) was put at 11 nM.

As for `COc1cc(-c2cn(C)c(=O)c(C)c2C)c(OC)cc1CN1CCC(OC2CCN(C(=O)c3ccc(Cl)c(N4CCC(=O)NC4=O)c3)CC2)CC1` [Compound A18, 1-(2-Chloro-5-(4-((1-(2,5-dimethoxy-4-(1,4,5-trimethyl-6-oxo-1,6-dihydropyridin-3-yl)benzyl)piperidin-4-yl)oxy)piperidine-1-carbonyl)phenyl)dihydropyrimidine-2,4(1H,3H)-dione], the “BRD9 Deg Amax %” value was 11.83% and the DC50 was 15 nM.

Take `COc1cc(-c2cn(C)c(=O)c(C)c2C)cc(OC)c1OCC1CCN(CC2CCN(C(=O)c3ccc(Cl)c(N4CCC(=O)NC4=O)c3)CC2)CC1` [Compound A19, 1-(2-Chloro-5-(4-((4-((2,6-dimethoxy-4-(1,4,5-trimethyl-6-oxo-1,6-dihydropyridin-3-yl)phenoxy)methyl)piperidin-1-yl)methyl)piperidine-1-carbonyl)phenyl)dihydropyrimidine-2,4(1H,3H)-dione]: the “BRD9 Deg Amax %” value was found to be 17.02% and it took 3 nM to reach half-maximal degradation (DC50).

Take `COc1cc(-c2cn(C)c(=O)c3cnccc23)c(OC)cc1OC1CCN(CC2CCN(C(=O)c3ccc(OC)c(N4CCC(=O)NC4=O)c3)CC2)CC1` [Compound A20, 1-(5-(4-((4-(2,5-Dimethoxy-4-(2-methyl-1-oxo-1,2-dihydro-2,7-naphthyridin-4-yl)phenoxy)piperidin-1-yl)methyl)piperidine-1-carbonyl)-2-methoxyphenyl)dihydropyrimidine-2,4(1H,3H)-dione]: the “BRD9 Deg Amax %” value amounted to 9.75% and the DC50 was found to be 14 nM.

Regarding `COc1cc(-c2cn(C)c(=O)c(C)c2C)cc(OC)c1CCN1CCC(OC2CCN(C(=O)c3ccc(Cl)c(N4CCC(=O)NC4=O)c3)CC2)CC1` [Compound A21, 1-(2-Chloro-5-(4-((1-(2,6-dimethoxy-4-(1,4,5-trimethyl-6-oxo-1,6-dihydropyridin-3-yl)phenethyl)piperidin-4-yl)oxy)piperidine-1-carbonyl)phenyl)dihydropyrimidine-2,4(1H,3H)-dione], the “BRD9 Deg Amax %” value was determined as 12.12% and the DC50 was 1 nM.

As to `COc1cc(-c2cn(C)c(=O)c(C)c2C)cc(OC)c1CCN1CCC(OC2CCN(C(=O)c3cccc(N4CCC(=O)NC4=O)c3)CC2)CC1` [Compound A22, 1-(3-(4-((1-(2,6-Dimethoxy-4-(1,4,5-trimethyl-6-oxo-1,6-dihydropyridin-3-yl)phenethyl)piperidin-4-yl)oxy)piperidine-1-carbonyl)phenyl)dihydropyrimidine-2,4(1H,3H)-dione], the “BRD9 Deg Amax %” value was found to be 11.18% and the DC50 is 6 nM.

Turning to `COc1cc(-c2cn(C)c(=O)c3cnccc23)c(OC)cc1CN1CCN(CC2CCN(C(=O)c3ccc(OC)c(N4CCC(=O)NC4=O)c3)CC2)CC1` [Compound A23, 1-(5-(4-((4-(2,5-Dimethoxy-4-(2-methyl-1-oxo-1,2-dihydro-2,7-naphthyridin-4-yl)benzyl)piperazin-1-yl)methyl)piperidine-1-carbonyl)-2-methoxyphenyl)dihydropyrimidine-2,4(1H,3H)-dione], the “BRD9 Deg Amax %” value came to 10.64% and the DC50 is 16 nM.

For the compound `COc1ccc(C(=O)N2CCC(CN3CCN(Cc4c(OC)cc(-c5cn(C)c(=O)c6cnccc56)cc4OC)CC3)CC2)cc1N1CCC(=O)NC1=O` [Compound A24, 1-(5-(4-((4-(2,6-Dimethoxy-4-(2-methyl-1-oxo-1,2-dihydro-2,7-naphthyridin-4-yl)benzyl)piperazin-1-yl)methyl)piperidine-1-carbonyl)-2-methoxyphenyl)dihydropyrimidine-2,4(1H,3H)-dione], the “BRD9 Deg Amax %” value is 13.31% and half-maximal degradation (DC50) was put at 27 nM.

As for `COc1cc(-c2cn(C)c(=O)c3cnccc23)cc(OC)c1CCN1CCC(OC2CCN(C(=O)COc3ccc(N4CCC(=O)NC4=O)cc3)CC2)CC1` [Compound A25, 1-(4-(2-(4-((1-(2,6-Dimethoxy-4-(2-methyl-1-oxo-1,2-dihydro-2,7-naphthyridin-4-yl)phenethyl)piperidin-4-yl)oxy)piperidin-1-yl)-2-oxoethoxy)phenyl)dihydropyrimidine-2,4(1H,3H)-dione], the “BRD9 Deg Amax %” value is on record as 18.22% and the DC50 was found to be 10 nM.
